Laboratory results published in US8778951B2, “Heteroaryl compounds and their uses” (Novartis AG, priority 2009, dated 2014).

target: Cdk9/cyclinT1 (Homo sapiens (Human), UniProt P50750); assay: Cdk9/CyclinT1 IMAP Protocol (fluorescence polarization kinase assay); assay type: biochemical; conditions: Table 2; generated using one of the two Cdk9/cyclinT1 assays (IMAP or Alpha Screen), not specified which; unit inferred
Method in brief: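 Reaction used 4 nM Cdk9/cyclinT1, 100 nM 5TAMRA-cdk7tide peptide and 6 uM ATP in 100 mM Tris pH 7.2 with MgCl2, 0.01% Tween-20, 1 mM DTT and 2.5% DMSO, running 4.5 h. Phosphopeptide was captured by IMAP binding reagent for >1 h, then read by fluorescence polarization (ex 531/em 595 nm).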

Cdk9/cyclinT1, sequence (P50750 whole entry): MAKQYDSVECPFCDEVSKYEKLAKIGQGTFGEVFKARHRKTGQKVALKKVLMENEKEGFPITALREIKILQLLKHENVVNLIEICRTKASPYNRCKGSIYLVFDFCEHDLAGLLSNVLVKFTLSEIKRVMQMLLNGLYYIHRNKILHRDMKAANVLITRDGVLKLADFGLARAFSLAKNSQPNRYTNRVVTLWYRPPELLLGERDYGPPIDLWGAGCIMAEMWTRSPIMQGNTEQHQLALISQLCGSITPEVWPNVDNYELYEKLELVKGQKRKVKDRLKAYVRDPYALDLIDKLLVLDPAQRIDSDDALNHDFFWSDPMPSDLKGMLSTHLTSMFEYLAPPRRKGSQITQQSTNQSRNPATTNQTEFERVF
Cdk9/cyclinT1, sequence (O60563 whole entry partner): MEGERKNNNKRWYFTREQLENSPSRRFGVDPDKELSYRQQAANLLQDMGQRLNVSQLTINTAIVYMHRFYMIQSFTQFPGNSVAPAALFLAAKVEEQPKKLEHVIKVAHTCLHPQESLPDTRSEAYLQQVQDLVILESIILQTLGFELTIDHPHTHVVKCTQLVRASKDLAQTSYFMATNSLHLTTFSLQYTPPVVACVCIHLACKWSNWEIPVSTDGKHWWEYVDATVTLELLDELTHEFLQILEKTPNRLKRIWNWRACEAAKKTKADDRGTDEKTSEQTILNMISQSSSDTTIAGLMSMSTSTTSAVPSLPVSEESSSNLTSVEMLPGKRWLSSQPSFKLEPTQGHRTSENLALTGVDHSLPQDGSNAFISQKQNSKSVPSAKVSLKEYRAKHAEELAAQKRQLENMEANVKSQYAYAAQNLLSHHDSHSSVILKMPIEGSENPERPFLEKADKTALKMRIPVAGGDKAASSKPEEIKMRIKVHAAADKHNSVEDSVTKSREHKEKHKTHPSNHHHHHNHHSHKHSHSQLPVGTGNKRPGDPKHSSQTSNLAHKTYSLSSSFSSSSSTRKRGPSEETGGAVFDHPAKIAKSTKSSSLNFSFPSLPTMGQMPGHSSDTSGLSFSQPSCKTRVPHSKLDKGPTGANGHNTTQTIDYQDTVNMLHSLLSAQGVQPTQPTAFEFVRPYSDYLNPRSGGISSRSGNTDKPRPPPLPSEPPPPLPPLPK

IC50 [nM] | Compound
0.15 | N#CC1(CNc2nc(-c3cc(N[C@H]4CC[C@H](N)CC4)ncc3Cl)ccc2F)CCOCC1 [Compound 341]
0.31 | CCCN(CCC)[C@H]1CC[C@H](Nc2cc(-c3ccc(F)c(NCC4(C#N)CCOCC4)n3)c(Cl)cn2)CC1 [Compound 343]
1 | CC1(CNc2nc(-c3cc(N[C@H]4CC[C@H](NC5CCS(=O)(=O)CC5)CC4)ncc3Cl)ccc2F)CCOCC1 [Compound 346]
1 | CC1(CNc2nc(-c3cc(NC4CCC(NC5CS(=O)(=O)C5)CC4)ncc3Cl)ccc2F)CCOCC1 (stereo not shown) [Compound 347]
2 | O=S1(=O)CCC(N[C@H]2CC[C@H](Nc3cc(-c4nc(NCC5CCOCC5)ccc4Cl)c(Cl)cn3)CC2)CC1 [Compound 348, 3,5′-dichloro-N6-((tetrahydro-2H-pyran-4-yl)methyl)-N2′-(trans-4-(1,1-dioxo-tetrahydro-2H-thiopyran-4-ylamino)cyclohexyl)-2,4′-bipyridine-2′,6-diamine]
1 | COC[C@@H](C)N[C@H]1CC[C@H](Nc2cc(-c3cccc(NCC4(CO)CCOCC4)n3)c(Cl)cn2)CC1 [Compound 349, (4-((5′-chloro-2′-(trans-4-((R)-1-methoxypropan-2-ylamino)cyclohexylamino)-2,4′-bipyridin-6-ylamino)methyl)tetrahydro-2H-pyran-4-yl)methanol]
0.17 | COC[C@@H](C)N[C@H]1CC[C@H](Nc2cc(-c3cccc(NCC4(C#N)CCOCC4)n3)c(Cl)cn2)CC1 [Compound 358, 4-((5′-chloro-2′-((1R,4r)-4-((R)-1-methoxypropan-2-ylamino)cyclohexylamino)-2,4′-bipyridin-6-ylamino)methyl)tetrahydro-2H-pyran-4-carbonitrile]
0.24 | N#CC1(CNc2cccc(-c3cc(N[C@H]4CC[C@H](O)CC4)ncc3Cl)n2)CCOCC1 [Compound 359, 4-((5′-chloro-2′-((1r,4r)-4-hydroxycyclohexylamino)-2,4′-bipyridin-6-ylamino)methyl)tetrahydro-2H-pyran-4-carbonitrile]
0.28 | CCN[C@H]1CC[C@H](Nc2cc(-c3cccc(NCC4(C#N)CCOCC4)n3)c(Cl)cn2)CC1 [Compound 360, 4-((5′-chloro-2′-((1r,4r)-4-(ethylamino)cyclohexylamino)-2,4′-bipyridin-6-ylamino)methyl)tetrahydro-2H-pyran-4-carbonitrile]
0.3 | CN(C)[C@H]1CC[C@H](Nc2cc(-c3cccc(NCC4(C#N)CCOCC4)n3)c(Cl)cn2)CC1 [Compound 361, 4-((5′-chloro-2′-((1r,4r)-4-(dimethylamino)cyclohexylamino)-2,4′-bipyridin-6-ylamino)methyl)tetrahydro-2H-pyran-4-carbonitrile]
0.7 | COC[C@@H](C)N[C@H]1CC[C@H](Nc2cc(-c3cccc(NCC4(C)CCS(=O)(=O)CC4)n3)c(Cl)cn2)CC1 [Compound 365]
1 | CCN(CC)[C@H]1CC[C@H](Nc2cc(-c3cccc(NCC4(C#N)CCOCC4)n3)c(Cl)cn2)CC1 [Compound 366, 4-((5′-chloro-2′-((1r,4r)-4-(diethylamino)cyclohexylamino)-2,4′-bipyridin-6-ylamino)methyl)tetrahydro-2H-pyran-4-carbonitrile]
3.1 | COC[C@@H](C)N[C@H]1CC[C@H](Nc2cc(-c3ccc(F)c(NCC(CO)CO)n3)c(Cl)cn2)CC1 [Compound 367, 2-((5′-chloro-5-fluoro-2′-((1R,4r)-4-((R)-1-methoxypropan-2-ylamino)cyclohexylamino)-2,4′-bipyridin-6-ylamino)methyl)propane-1,3-diol]

Second part, the compound before the results:

Compound | IC50 [nM]
CC1(C)OC[C@@H](CN[C@H]2CC[C@H](Nc3cc(-c4nc(NCC5CCOCC5)ccc4Cl)c(Cl)cn3)CC2)O1 [Compound 320, 3,5′-dichloro-N2′-(trans-4-(((R)-2,2-dimethyl-1,3-dioxolan-4-yl)methyl)aminocyclohexyl)-N6-((tetrahydro-2H-pyran-4-yl)methyl)-2,4′-bipyridine-2′,6-diamine] | 1
O=S1(=O)CCC(N[C@H]2CC[C@H](Nc3cc(-c4ccc(F)c(NCC5CCOCC5)n4)c(Cl)cn3)CC2)C1 (stereo partly shown) [Compound 322] | 3
COC[C@@H](C)N[C@H]1CC[C@H](Nc2cc(-c3nc(NC[C@@H]4CCCOC4)ccc3Cl)c(Cl)cn2)CC1 [Compound 323, 3,5′-dichloro-N2′-(trans-4-((R)-1-methoxypropan-2-yl-amino)cyclohexyl)-N6-(((S)-tetrahydro-2H-pyran-3-yl)methyl)-2,4′-bipyridine-2′,6-diamine] | 1
Fc1ccc(-c2cc(N[C@H]3CC[C@H](NCC4CCO4)CC3)ncc2Cl)nc1NCC1CCOCC1 (stereo partly drawn) [Compound 324, 5′-chloro-5-fluoro-N2′-(trans-4-(oxetan-2-yl-methylamino)cyclohexyl)-N6-((tetrahydro-2H-pyran-4-yl)methyl)-2,4′-bipyridine-2′,6-diamine] | 2
CS(=O)(=O)CCN[C@H]1CC[C@H](Nc2cc(-c3ccc(F)c(NCC4CCOCC4)n3)c(Cl)cn2)CC1 [Compound 326] | 0.49
COC[C@@H](C)N[C@H]1CC[C@H](Nc2cc(-c3nc(NC[C@H]4CCCOC4)ccc3Cl)c(Cl)cn2)CC1 [Compound 327, 3,5′-dichloro-N2′-(trans-4-((R)-1-methoxypropan-2-yl-amino)cyclohexyl)-N6-(((R)-tetrahydro-2H-pyran-3-yl)methyl)-2,4′-bipyridine-2′,6-diamine] | 1
O=S1(=O)CCC(CN[C@H]2CC[C@H](Nc3cc(-c4ccc(F)c(NCC5CCOCC5)n4)c(Cl)cn3)CC2)CC1 [Compound 331] | 1
CC1(CN[C@H]2CC[C@H](Nc3cc(-c4ccc(F)c(NCC5CCOCC5)n4)c(Cl)cn3)CC2)OCCO1 [Compound 333, 5′-chloro-5-fluoro-N2′-(trans-4-((2-methyl-1,3-dioxolan-2-yl)methyl)aminocyclohexyl)-N6-((tetrahydro-2H-pyran-4-yl)methyl)-2,4′-bipyridine-2′,6-diamine] | 4
COCCN[C@H]1CC[C@H](Nc2cc(-c3ccc(F)c(NCC4(C#N)CCOCC4)n3)c(Cl)cn2)CC1 [Compound 339] | 0.17
COC[C@@H](C)N[C@H]1CC[C@H](Nc2cc(-c3ccc(F)c(NCC4(C#N)CCOCC4)n3)c(Cl)cn2)CC1 [Compound 340, 4-((5′-chloro-5-fluoro-2′-(trans-4-((R)-1-methoxypropan-2-yl-amino)cyclohexylamino)-2,4′-bipyridin-6-ylamino)methyl)tetrahydro-2H-pyran-4-carbonitrile] | 0.23
(S)-3-(trans-4-(3,5′-dichloro-6-((tetrahydro-2H-pyran-4-yl)methyl)amino-2,4′-bipyridin-2′-yl-amino)cyclohexylamino)-1,1,1-trifluoropropan-2-ol [Compound 289] | 4

test system: neointima formation; assay: not given; conditions: rats; cited from earlier work

Compound | inhibition of neointima formation
COc1ccc(CNc2nc(N(CCO)CCO)nc3c2ncn3C(C)C)cc1 [CVT-313] | greater than 80%
